Source: patent publication US20020013478A1, “Calanolide analogues and methods of their use” (Sarawak Medichem Pharmaceuticals,Inc., priority 1994, published 2002)
In brackets after ≈: the same amount, converted by molar mass. Read-outs that look alike come from different tables or passages of the source.

Tests used:
H112-2 HIV viral strain = experiment: In vitro MTT assay, isolate not pre-treated with AZT (Example 37, FIGS. 2); conditions: H112-2 strain; FIGS. 2(a)-2(e)
G910-6 HIV viral strain = experiment: In vitro MTT assay, AZT-resistant isolate (Example 37, FIGS. 1); conditions: G910-6 strain, FIGS. 1(a)-1(e)
EBV = EBV assay: superinfection of Raji or Daudi cells with P3HR-1, immunofluorescence for EA and VCA; assay type: cell-based, Epstein-Barr virus; conditions: Table II
Description: There are two prototypes of infectious EBV. One is exemplified by the virus derived from supernatant fluids of the P3HR-1cell line. This cell line produces nontransforming virus that causes the production of early antigen (EA) after primary infection or superinfection of B cell lines. The other prototype is exemplified by the B-95-8 virus. This virus immortalized cord blood lymphocytes and induced tumors in marmosets.
The virus used in our assays is P3HR-1.
Ramos is an exceptional B cell line derived from Burkitt's lymphoma tumor but containing no detectable EBV genome copies and is EBNA negative. Ramos/AW was obtained by in vitro infection of Ramos with the P3HR-1 virus and contains one resident EBV genome copy/cell. Raji is a Burkitt's lymphoma cell line containing 60 EBV genomes/cell, and will be the primary cell used for screening antiviral activity against EBV EA expression. Daudi is a low level producer that contains 152 EBV genome copies/cell. It spontaneously expresses EBV EA in 0.25%-0.5% of the cells. It will be used in follow-up studies to confirm activity. These cell lines respond to superinfection by EBV by expressing EA(D), EA(R), and VCA. All cell lines are maintained in RPMI-1640 medium supplemented by 10% FCS, L-glutamine and 100 μg/mL gentamicin. The cultures are fed twice weekly and the cell concentration adjusted to 3×10^5/mL. The cells are kept at 37° C. in a humidified atmosphere with 5% CO2.
Cells are infected with the P3HR-1 strain of EBV and the drugs to be tested are added after adsorption (45 minutes at 37° C.) and washing of the cell cultures. The cultures are incubated for two days in complete medium to allow viral gene expression. Following the 48 hr incubation period, the number of cells of each sample are counted and smears made. Monoclonal antibodies to the different EA components and VCA are then added to the cells incubated and washed. This is followed by a fluorescein conjugated rabbit anti-mouse Ig antibody; and the number of fluorescence positive cells in the smears are counted. The total number of cells in the cultures positive for EA or VCA are then calculated and compared.

Raji or Daudi cells = experiment: Toxicity run with the EBV assay; assay type: cell-based, human; conditions: Table II
Description: IC50 (50% inhibitory concentration) is the concentration required to inhibit cell proliferation by 50%

2.2.15 cells = experiment: Toxicity in 2.2.15 cells, neutral red dye uptake; assay type: cell-based, human
Experimental: Cells of 2.2.15 were grown to confluence in 96-well flat-bottomed tissue culture plates and treated with compounds (in 0.2 mL culture medium/well) as described above. Four concentrations of each compound were assayed, each in triplicate cultures, in 3- to 10-fold steps. Untreated control cultures were maintained on each 96-well plate. On each 96-well plate, wells containing no cells were used to correct for light scattering.

[1] = tested on: uninfected cells (MT-2, CEM-SS); experiment: MTT cytotoxicity on uninfected cells (Example 37); assay type: cell-based, human
[2] = tested on: human foreskin fibroblast cells; experiment: Toxicity run with the HCMV assay, human foreskin fibroblast cells; assay type: cell-based; conditions: Table II; for IC50: Homo sapiens, Fibroblast
Experimental: (§1) [table] […] The media from the wells is then aspirated and 2 mL of each drug concentration is then added to each well. The cells are then incubated in a CO2 incubator at 37° C. for 72 h. At the end of this time, the media-drug solution is removed and the cells washed. […] The cell-media mixture is then pipetted up and down vigorously to break up the cell suspension, and 0.2 mL of the mixture is added to 9.8 mL of Isoton III and counted using a Coulter Counter. Each sample is counted three times with three replicate wells per sample. The procedure for plating cells and adding drug is the same as for the MTT Assay. After drug addition, the plates are incubated for seven days in a CO2 incubator at 37° C. […] This is incubated in the CO2 incubator for one hour. The dye is aspirated and the cells are washed using a Nunc Plate Washer. […] The plates are rotated for 15 minutes and the optical densities are read at 550 nm on a plate reader.

HBV = HBV replication in cultures of 2.2.15 cells, extracellular HBV virion DNA (primary assay); conditions: for activity in primary assay (HBV virion): text summary of Table IV
Experimental: Both intracellular and extracellular HBV DNA are analyzed in order to (i) allow for verification of compound efficacy and (ii) provide possible data on the target site in the HBV replication pathway for the compound from examination of the pattern of viral replicative forms. The culture medium is changed daily during the treatment period to (i) prevent the buildup of potentially toxic metabolites derived from test compounds and (ii) provide an analysis of HBV virion production during discrete 24-hour intervals which enables a quantitative comparison of any effect on virion production.
The analysis of HBV DNA is performed using blot hybridization techniques (Southern and slot blot) and [^32P]-labeled HBV-specific probes. HBV DNA levels are measured by comparison to known amounts of HBV DNA standards applied to every nitrocellulose membrane (gel or slot blot). An AMBIS beta scanner, which measures the radioactive decay of the hybridized probes directly from the nitrocellulose membranes, is used for the quantitative analysis. Standard curves, generated by multiple analyses, are used to correlate CPM measurements made by the beta scanner with relative levels of target HBV DNA. The levels of HBV virion DNA released into the culture medium are analyzed by a slot blot hybridization procedure.

HCMV = HCMV semi-automated CPE-inhibition assay in human foreskin fibroblast cells; assay type: cell-based, human cytomegalovirus; conditions: Table II; for EC50: Human betaherpesvirus 5, Fibroblast
HIV-1 [3] = conditions: cited from earlier work
[4] = tested on: human T-lymphoblastic cells (CEM-SS); conditions: cited from earlier work
[5] = tested on: pyridinone-resistant A17 virus; conditions: cited from earlier work
[6] = tested on: AZT-resistant G-9106 strain of HIV; conditions: cited from earlier work
[7] = tested on: human foreskin fibroblast cells; experiment: Toxicity run with the VZV assay, human foreskin fibroblast cells; assay type: cell-based; conditions: Table II
Experimental: as §1

HBV RI = experiment: HBV replication in 2.2.15 cells, intracellular DNA replication intermediates (secondary assay); conditions: for EC50: read-out: HBV RI EC50; for EC90: read-out: HBV RI EC90
VZV = VZV plaque reduction assay in human foreskin fibroblast cells; assay type: cell-based, varicella zoster virus; conditions: Table II
Experimental: Two days prior to use, HFF cells are plated into six-well plates and incubated at 37° C. with 5% CO2 and 90% humidity. On the date of assay, the drug is made up at twice the desired concentration in 2x MEM and then serially diluted 1:5 in 2x MEM using six concentrations of drug. The initial starting concentration is usually 200 gg/mL down to 0.06 μg/mL. The virus to be used is diluted in MEM containing 10% FBS to a desired concentration which will give 20-30 plaques per well. The media is then aspirated from the wells and 0.2 mL of virus is added to each well in duplicate with 0.2 mL of media being added to drug toxicity wells. The plates are then incubated for one hour with shaking every fifteen minutes. After the incubation period, an equal amount of 1% agarose was added to an equal volume of each drug dilution. This will give final drug concentrations beginning with 100 μg/mL and ending with 0.03 μg/mL and a final agarose overlay concentration of 0.5%. The drug agarose mixture is applied to each well in 2 mL volume and the plates then incubated for three days, after which the cells were stained with a 1.5% solution of neutral red. At the end of 4-6hr incubation period, the stain is aspirated, and plaques counted using a stereomicroscope at lOx magnification.
The procedure is essentially the same as for the HSV plaque assay described above with two exceptions:
1. After addition of the drug, the plates are incubated for ten days.
2. On days three and six, an additional 1 mL overlay with equal amounts of 2x MEM and 1% agarose are added.

HIV-1 [8] = experiment: microbe, parasite or virus in culture; conditions: Human immunodeficiency virus 1, CEM-SS
CEM-SS cells = experiment: CEM-SS MTT assay, cytotoxicity (Table I); assay type: cell-based, human; conditions: Homo sapiens
HIV-1 [9] = conditions: for Maximum Protection (%): CEM-SS MTT assay; for protecting cells against HIV infection: text summary of Table I
[10] = Homo sapiens, Table II, read-out: HBV IC50
[11] = Hepatitis B virus, read-out: HBV EC50

With `CCCc1cc(=O)oc2c3c(c4c(c12)OC(C)(C)C=C4)O[C@H](C)[C@@H](C)[C@@H]3O` (racemic) [(±)-calanolide A, (±)-Calanolide A] the “antiviral effect (reducing viral CPE)” value (H112-2 HIV viral strain) was “nearly as effective as (+)-calanolide A” and the “antiviral effect (reducing viral CPE)” value (G910-6 HIV viral strain) was “effective in reducing viral CPE”.
For `CCCc1cc(=O)oc2c3c(c4c(c12)OC(C)(C)C=C4)O[C@@H](C)[C@H](C)[C@H]3O` [(−)-1, (-)-Calanolide A], the “EBV EC50” value (EBV) was >100 µg/mL, the “EBV IC50” value (Raji or Daudi cells) was >100 µg/mL and the IC50 (2.2.15 cells; Table II, read-out: HBV IC50) was 173 µM. For the same molecule, the toxicity ([1]; FIGS. 2(a)-2(e)) was “relatively non-toxic”, the toxicity ([1]; at concentrations of 1 μg/mL, FIGS. 1(a)-1(e)) was “relatively non-toxic” and the “antiviral effect (reducing viral CPE)” value (H112-2 HIV viral strain) was “very little antiviral effect”. The “HCMV IC50” value [2] was 80.3 µg/mL, the “antiviral effect (reducing viral CPE)” value (G910-6 HIV viral strain) was “very little antiviral effect” and the EC50 (HBV; read-out: HBV EC50, Table II) was > 30 µM. The “HCMV EC50” value (HCMV) was >20 µg/mL.
In the case of `CCCc1cc(=O)oc2c3c(c4c(c12)OC(C)(C)C=C4)O[C@H](C)[C@@H](C)[C@@H]3O` [(+)-1, (+)-Calanolide A], the EC50 (HIV-1 [3]; HIV-1 replication in CEM-SS cells) is given as 0.1 µM, the “protection against the cytopathic effects of HIV-1” value (HIV-1 [3]; down to a concentration of 0.1 μM) is given as 100% and the IC50 [4] is given as 20 µM. For the same molecule, the EC50 (EBV; human gammaherpesvirus 4) was > 50 µg/mL, the IC50 (Raji or Daudi cells; Homo sapiens) was > 50 µg/mL and the IC50 (2.2.15 cells; [10]) was 175 µM. The IC50 [2] was 86.2 µg/mL (≈ 233 µM), the “activity against pyridinone-resistant A17 virus” value [5] was “active” and the “activity against AZT-resistant G-9106 strain of HIV” value [6] was “active”. For the same molecule, the “antiviral effect (reducing viral CPE)” value (G910-6 HIV viral strain) was “effective in reducing viral CPE”, the EC50 (HBV; [11]) was > 2.6 µM and the EC50 (HCMV) was > 20 µg/mL.
For `CCCc1cc(=O)oc2c3c(c4c(c12)OC(C)(C)C=C4)OCC(C)C3=O` (racemic) [(±)-15f], the “EBV EC50” value (EBV) was >50 µg/mL, the “EBV IC50” value (Raji or Daudi cells) was >50 µg/mL and the IC50 (2.2.15 cells; Table II, read-out: HBV IC50) was 270 µM. The IC50 (2.2.15 cells; Table IV, HBV RI columns, read-out: HBV RI IC50) was 303 µM, the IC50 (2.2.15 cells; Table IV, HBV Virion columns, read-out: HBV Virion IC50) was 303 µM and the “VZV IC50” value [7] was 60.0 µg/mL. For the same molecule, the EC50 (HBV RI; Table IV) was 5.7 µM, the EC90 (HBV RI; Table IV) was 15 µM and the “activity in secondary assay (HBV RI)” value (HBV RI; text summary of Table IV) was “active”. The “HCMV IC50” value [2] was >100 µg/mL, the “VZV EC50” value (VZV) was >20 µg/mL and the EC50 (HBV; read-out: HBV EC50, Table II) was 0.67 µM. The EC50 (HBV; read-out: HBV Virion EC50, Table IV) was 0.81 µM, the EC90 (HBV; read-out: HBV Virion EC90, Table IV) was 5 µM and the “activity in primary assay (HBV virion)” value (HBV) was “active”. The “HCMV EC50” value (HCMV) was >100 µg/mL.
In the case of `CCCc1cc(=O)oc2c(C(=O)[C@@H](C)[C@@H](C)O)c(O)c3c(c12)OC(C)(C)C=C3` (relative stereo) [(±)-8a, 6,6-Dimethyl-9-hydroxy-10-[2(S*)-methyl-3(R*)-hydroxybutyro-]4-propyl-2H,6H-benzo[1,2-b:3,4b′]dipyran-2-one], the EC50 (HIV-1 [8]) is reported as 6.16 µM, the melting point is reported as 66 to 67 °C and the IC50 (CEM-SS cells) is reported as 23.8 µM. The “Maximum Protection (%)” value (HIV-1 [9]) was 84% and the “protecting cells against HIV infection” value (HIV-1 [9]) was “highly efficacious”.
`CCCc1cc(=O)oc2c3c(c4c(c12)OC(C)(C)C=C4)OC(C)C(C)(C)C3=O` (racemic) [(±)-15a, (±)-10,11-Dihydro-6,6,10,11,11-pentamethyl-4-propyl-2H,6H, 12H-benzo[1,2-b:3,4-b′:5,6-b″]tripyran-2,12-dione] gave an IC50 (2.2.15 cells; [10]) of 1990 µM, an IC50 (2.2.15 cells; Homo sapiens, Table IV, HBV RI columns, read-out: HBV RI IC50) of 1790 µM and an IC50 (2.2.15 cells; Homo sapiens, Table IV, HBV Virion columns, read-out: HBV Virion IC50) of 1790 µM. For the same molecule, the EC50 (HBV RI; Hepatitis B virus) was > 30 µM, the EC90 (HBV RI; Hepatitis B virus) was > 30 µM and the IC50 [2] was > 100 µg/mL. It also gave an EC50 (HBV; [11]) of 2 µM, an EC90 (HBV; Hepatitis B virus, read-out: HBV EC90) of 16 µM and an EC50 (HBV; Hepatitis B virus, read-out: HBV Virion EC50) of 2.8 µM. For the same molecule, the EC90 (HBV; Hepatitis B virus, read-out: HBV Virion EC90) was 20 µM, the “activity in primary assay (HBV virion)” value (HBV) was “active” and the IC50 (CEM-SS cells) was 19.3 µM. For the same molecule, the EC50 (HCMV) was > 100 µg/mL.
With `Cc1cn([C@H]2C[C@H](N=[N+]=[N-])[C@@H](CO)O2)c(=O)[nH]c1=O` [AZT, reference compound] the “antiviral effect (reducing viral CPE)” value (H112-2 HIV viral strain) was “sensitive to AZT” and the “antiviral effect (reducing viral CPE)” value (G910-6 HIV viral strain) was “little to no effect”.
With `CCCc1cc(=O)oc2c(C(=O)[C@@H](C)[C@H](C)O)c(O)c3c(c12)OC(C)(C)C=C3` (relative stereo) [(±)-8b, 6,6-Dimethyl-9-hydroxy-10-12(S*)-methyl-3(S*)-hydroxybutyro]4-propyl-2H,6H-benzo[1,2-b:3,4-b′]dipyran-2-one] the EC50 (HIV-1 [8]) was 2.28 µM, the melting point was 115 °C and the IC50 (CEM-SS cells) was 21.5 µM. The “Maximum Protection (%)” value (HIV-1 [9]) was 81% and the “protecting cells against HIV infection” value (HIV-1 [9]) was “highly efficacious”.
Molecule `CCCc1cc(=O)oc2c3c(c4c(c12)OC(C)(C)C=C4)OC(C)=C(C)C3O` (stereo not drawn) [Compound 6, 12-hydroxy-6,6,10,11-tetramethyl-4-propyl-2H,6H,12H-benzo[1,2-b:3,4-b′:5,6-b″]tripyran-2-one] has a melting point of 176 to 177 °C.
